Data on 18 molecules can be found in PMC3961306, “Comparison of the Cancer Gene Targeting and Biochemical Selectivities of All Targeted Kinase Inhibitors Approved for Clinical Use” (PLoS ONE, 2014).

What all share (assay): Kinase profiling in a biochemical assay panel (mobility shift assays and ELISA), %-inhibition at 1 μM; selectivity entropy
Background: ELISA stands for enzyme-linked immunosorbent assay.

For test [1], the target named is panel of more than 300 wild-type and mutant kinases (313 kinase panel) (Homo sapiens, UniProt P22455, V550L). Particulars: kinase FGFR4(V550L); compound at 1 μM.
Chain of panel of more than 300 wild-type and mutant kinases (313 kinase panel) (Homo sapiens, UniProt P22455, V550L) (P22455 22-802 V550L): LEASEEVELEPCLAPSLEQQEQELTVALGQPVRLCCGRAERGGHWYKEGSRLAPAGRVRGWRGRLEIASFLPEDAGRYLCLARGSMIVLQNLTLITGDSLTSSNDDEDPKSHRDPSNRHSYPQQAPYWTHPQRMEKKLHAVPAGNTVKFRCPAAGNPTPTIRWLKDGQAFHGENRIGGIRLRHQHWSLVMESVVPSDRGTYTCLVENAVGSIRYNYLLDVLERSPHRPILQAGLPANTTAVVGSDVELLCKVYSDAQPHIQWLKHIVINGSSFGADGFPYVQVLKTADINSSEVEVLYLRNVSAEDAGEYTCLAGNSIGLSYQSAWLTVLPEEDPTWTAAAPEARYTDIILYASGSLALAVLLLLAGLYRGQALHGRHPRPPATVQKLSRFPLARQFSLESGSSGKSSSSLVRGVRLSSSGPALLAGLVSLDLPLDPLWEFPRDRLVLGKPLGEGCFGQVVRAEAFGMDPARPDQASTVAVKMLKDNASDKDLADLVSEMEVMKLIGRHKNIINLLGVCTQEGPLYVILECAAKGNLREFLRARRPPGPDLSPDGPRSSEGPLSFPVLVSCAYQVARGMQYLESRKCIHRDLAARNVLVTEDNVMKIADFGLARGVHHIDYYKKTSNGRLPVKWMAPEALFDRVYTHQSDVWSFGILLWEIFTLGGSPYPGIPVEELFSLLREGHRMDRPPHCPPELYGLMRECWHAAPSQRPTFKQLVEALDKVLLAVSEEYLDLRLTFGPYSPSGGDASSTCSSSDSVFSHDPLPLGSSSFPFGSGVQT
Test [2] concerns the target T1, panel of more than 300 wild-type and mutant kinases (313 kinase panel) (Homo sapiens, UniProt Q9NRM7).
T1 sequence (Q9NRM7 1-1088): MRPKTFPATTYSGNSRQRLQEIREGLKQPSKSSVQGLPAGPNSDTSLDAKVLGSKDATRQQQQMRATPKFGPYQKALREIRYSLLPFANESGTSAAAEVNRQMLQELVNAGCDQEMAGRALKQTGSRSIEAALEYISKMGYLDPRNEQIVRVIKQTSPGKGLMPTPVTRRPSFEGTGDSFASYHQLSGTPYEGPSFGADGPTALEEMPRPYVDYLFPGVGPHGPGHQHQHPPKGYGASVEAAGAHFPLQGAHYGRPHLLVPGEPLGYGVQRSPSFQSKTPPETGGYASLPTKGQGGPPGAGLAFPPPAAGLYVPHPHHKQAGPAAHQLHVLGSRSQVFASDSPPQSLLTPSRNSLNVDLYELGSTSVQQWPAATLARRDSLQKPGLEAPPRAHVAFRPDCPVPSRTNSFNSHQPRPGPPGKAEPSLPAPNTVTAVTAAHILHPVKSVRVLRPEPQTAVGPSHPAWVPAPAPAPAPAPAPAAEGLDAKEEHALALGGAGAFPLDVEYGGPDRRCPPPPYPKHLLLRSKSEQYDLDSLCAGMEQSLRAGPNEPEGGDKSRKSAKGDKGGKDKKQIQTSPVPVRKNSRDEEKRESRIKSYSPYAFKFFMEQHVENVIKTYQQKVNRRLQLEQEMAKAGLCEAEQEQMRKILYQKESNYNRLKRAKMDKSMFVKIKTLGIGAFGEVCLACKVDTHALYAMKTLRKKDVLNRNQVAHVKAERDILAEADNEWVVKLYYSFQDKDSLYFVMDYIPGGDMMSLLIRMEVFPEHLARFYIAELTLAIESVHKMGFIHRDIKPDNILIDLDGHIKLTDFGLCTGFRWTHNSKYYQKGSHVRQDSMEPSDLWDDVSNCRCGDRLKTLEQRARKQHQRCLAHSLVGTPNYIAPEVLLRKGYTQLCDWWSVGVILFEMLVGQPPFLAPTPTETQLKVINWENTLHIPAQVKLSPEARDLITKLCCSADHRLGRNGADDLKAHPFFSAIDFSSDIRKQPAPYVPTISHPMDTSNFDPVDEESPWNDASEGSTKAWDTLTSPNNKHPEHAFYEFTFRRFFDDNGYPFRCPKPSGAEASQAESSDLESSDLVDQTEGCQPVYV

Test [3] has as its target T2, panel of more than 300 wild-type and mutant kinases (313 kinase panel) (Homo sapiens, UniProt Q99683).
T2 sequence (Q99683 1-1374): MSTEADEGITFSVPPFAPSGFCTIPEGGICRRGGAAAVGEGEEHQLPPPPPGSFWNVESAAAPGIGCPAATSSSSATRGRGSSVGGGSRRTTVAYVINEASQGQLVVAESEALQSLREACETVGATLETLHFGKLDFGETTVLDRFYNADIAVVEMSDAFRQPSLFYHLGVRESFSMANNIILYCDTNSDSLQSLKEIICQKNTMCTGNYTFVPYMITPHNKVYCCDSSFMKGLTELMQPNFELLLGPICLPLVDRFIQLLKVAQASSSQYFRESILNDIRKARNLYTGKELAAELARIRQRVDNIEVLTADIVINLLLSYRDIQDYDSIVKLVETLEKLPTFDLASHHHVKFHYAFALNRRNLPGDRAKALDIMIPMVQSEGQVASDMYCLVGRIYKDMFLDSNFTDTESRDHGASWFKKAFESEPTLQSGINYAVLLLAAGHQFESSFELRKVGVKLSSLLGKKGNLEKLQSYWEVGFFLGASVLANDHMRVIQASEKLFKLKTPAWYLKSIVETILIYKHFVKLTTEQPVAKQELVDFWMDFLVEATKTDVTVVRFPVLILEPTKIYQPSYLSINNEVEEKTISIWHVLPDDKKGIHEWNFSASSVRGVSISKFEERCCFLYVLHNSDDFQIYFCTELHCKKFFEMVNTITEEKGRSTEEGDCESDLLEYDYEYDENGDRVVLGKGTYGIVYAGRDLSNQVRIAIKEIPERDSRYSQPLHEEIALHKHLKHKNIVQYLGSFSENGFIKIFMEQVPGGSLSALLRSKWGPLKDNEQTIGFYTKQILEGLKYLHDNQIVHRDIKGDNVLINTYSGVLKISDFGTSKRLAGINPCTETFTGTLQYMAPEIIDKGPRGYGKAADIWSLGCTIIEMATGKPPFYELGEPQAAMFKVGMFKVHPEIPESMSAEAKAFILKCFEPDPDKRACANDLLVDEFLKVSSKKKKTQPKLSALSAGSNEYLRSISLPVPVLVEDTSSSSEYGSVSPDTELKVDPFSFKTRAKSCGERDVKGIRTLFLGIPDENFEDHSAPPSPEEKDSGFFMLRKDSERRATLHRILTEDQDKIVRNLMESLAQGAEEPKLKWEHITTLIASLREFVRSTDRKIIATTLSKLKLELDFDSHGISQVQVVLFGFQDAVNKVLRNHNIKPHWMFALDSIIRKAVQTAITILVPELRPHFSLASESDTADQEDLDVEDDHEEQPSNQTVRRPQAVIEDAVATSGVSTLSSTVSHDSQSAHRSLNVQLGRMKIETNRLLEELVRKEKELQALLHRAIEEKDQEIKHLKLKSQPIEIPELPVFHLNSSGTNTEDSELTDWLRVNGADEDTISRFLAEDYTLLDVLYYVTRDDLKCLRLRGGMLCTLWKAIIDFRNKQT

The mark [4] stands for this setting: kinase MAP3K5, compound at 1 μM.

The structures appear in SMILES notation.

For `COc1cc(Nc2c(C#N)cnc3cc(OCCCN4CCN(C)CC4)c(OC)cc23)c(Cl)cc1Cl` [bosutinib], the “%-inhibition of FGFR4(V550L)” value in test [1] was -7%. Also, the “%-inhibition of LATS2” value in test [2] (kinase LATS2, compound at 1 μM) was determined as 28%.
With `COc1cc2nccc(Oc3ccc(NC(=O)C4(C(=O)Nc5ccc(F)cc5)CC4)cc3)c2cc1OC` [cabozantinib], the “%-inhibition of FGFR4(V550L)” value in test [1] is listed as -1.35%. In test [3] (setting [4]), the “%-inhibition of MAP3K5” value was found to be 1.72%. The “%-inhibition of LATS2” value in test [2] (kinase LATS2, compound at 1 μM) is given as -5.61%.
Turning to `C[C@@H](Oc1cc(-c2cnn(C3CCNCC3)c2)cnc1N)c1c(Cl)ccc(F)c1Cl` [crizotinib], the “%-inhibition of FGFR4(V550L)” value in test [1] is reported as 0.45%. Also, the “%-inhibition of MAP3K5” value in test [3] (setting [4]) stood at 1.11%. In addition, the “%-inhibition of LATS2” value in test [2] (kinase LATS2, compound at 1 μM) is recorded as -6%.
Turning to `CC(C)(C)c1nc(-c2cccc(NS(=O)(=O)c3c(F)cccc3F)c2F)c(-c2ccnc(N)n2)s1` [dabrafenib], the “%-inhibition of FGFR4(V550L)” value in test [1] is -1.08%. Besides, the “%-inhibition of LATS2” value in test [2] (kinase LATS2, compound at 1 μM) was found to be 0.57%.
In the case of `Cc1nc(Nc2ncc(C(=O)Nc3c(C)cccc3Cl)s2)cc(N2CCN(CCO)CC2)n1` [dasatinib], in test [3] (setting [4]), the “%-inhibition of MAP3K5” value is recorded as -1.69%. Moreover, the “%-inhibition of LATS2” value in test [2] (kinase LATS2, compound at 1 μM) is -7%.
On to `C#Cc1cccc(Nc2ncnc3cc(OCCOC)c(OCCOC)cc23)c1` [erlotinib], for which the “%-inhibition of MAP3K5” value in test [3] (1 µM) stood at 5%. Also, the “%-inhibition of LATS2” value in test [2] (1 µM) was -8%.
With `CO[C@H]1C[C@@H]2CC[C@@H](C)[C@@](O)(O2)C(=O)C(=O)N2CCCC[C@H]2C(=O)O[C@H]([C@H](C)C[C@@H]2CC[C@@H](OCCO)[C@H](OC)C2)CC(=O)[C@H](C)/C=C(\C)[C@@H](O)[C@@H](OC)C(=O)[C@H](C)C[C@H](C)/C=C/C=C/C=C/1C` [everolimus], the “%-inhibition of FGFR4(V550L)” value in test [1] is recorded as -10%. In addition, in test [3] (setting [4]), the “%-inhibition of MAP3K5” value is 2.56%. The “%-inhibition of LATS2” value in test [2] (kinase LATS2, compound at 1 μM) is recorded as -13%.
Take `O=S(=O)(c1cccc2cnccc12)N1CCCNCC1` [fasudil]: the “%-inhibition of MAP3K5” value in test [3] (setting [4]) is -15%. The “%-inhibition of LATS2” value in test [2] (kinase LATS2, compound at 1 μM) is 22%.
As for `CS(=O)(=O)CCNCc1ccc(-c2ccc3ncnc(Nc4ccc(OCc5cccc(F)c5)c(Cl)c4)c3c2)o1` [lapatinib], the “%-inhibition of MAP3K5” value in test [3] (setting [4]) was found to be 6%. The “%-inhibition of LATS2” value in test [2] (kinase LATS2, compound at 1 μM) is on record as -8%.
With `Cc1cn(-c2cc(NC(=O)c3ccc(C)c(Nc4nccc(-c5cccnc5)n4)c3)cc(C(F)(F)F)c2)cn1` [nilotinib], the “%-inhibition of MAP3K5” value in test [3] (setting [4]) is on record as -2.28%. Besides, the “%-inhibition of LATS2” value in test [2] (kinase LATS2, compound at 1 μM) was -72%.
For `Cc1ccc(Nc2nccc(N(C)c3ccc4c(C)n(C)nc4c3)n2)cc1S(N)(=O)=O` [pazopanib] the same measures were 18% and -0.465%.
With `Cc1ccc(C(=O)Nc2ccc(CN3CCN(C)CC3)c(C(F)(F)F)c2)cc1C#Cc1cnc2cccnn12` [ponatinib], in test [1], the “%-inhibition of FGFR4(V550L)” value was 20%. For the same molecule, the “%-inhibition of LATS2” value in test [2] (kinase LATS2, compound at 1 μM) is given as 16%.
With `CNC(=O)c1cc(Oc2ccc(NC(=O)Nc3ccc(Cl)c(C(F)(F)F)c3)c(F)c2)ccn1` [regorafenib], the “%-inhibition of FGFR4(V550L)” value in test [1] came out at 3.37%. Moreover, in test [3] (setting [4]), the “%-inhibition of MAP3K5” value is on record as 5%. In addition, the “%-inhibition of LATS2” value in test [2] (kinase LATS2, compound at 1 μM) was -9.47%.
For `N#CC[C@H](C1CCCC1)n1cc(-c2ncnc3[nH]ccc23)cn1` [ruxolitinib] the same measures were 16%, 6% and 37%.
On the same counts, the results for `CO[C@H]1C[C@@H]2CC[C@@H](C)[C@@](O)(O2)C(=O)C(=O)N2CCCC[C@H]2C(=O)O[C@H]([C@H](C)C[C@@H]2CC[C@@H](OC(=O)C(C)(CO)CO)[C@H](OC)C2)CC(=O)[C@H](C)/C=C(\C)[C@@H](O)[C@@H](OC)C(=O)[C@H](C)C[C@H](C)/C=C/C=C/C=C/1C` [temsirolimus] are -8.55%, 2.79% and -4.56%.
For `CC(=O)Nc1cccc(-n2c(=O)n(C3CC3)c(=O)c3c(Nc4ccc(I)cc4F)n(C)c(=O)c(C)c32)c1` [trametinib] the same measures were -0.155%, 17% and 1.87%.
For the molecule `COc1cc2c(Nc3ccc(Br)cc3F)ncnc2cc1OCC1CCN(C)CC1` [vandetanib], in test [1], the “%-inhibition of FGFR4(V550L)” value is listed as -4.72%. Further, in test [3] (setting [4]), the “%-inhibition of MAP3K5” value is listed as 8%. In addition, in test [2] (kinase LATS2, compound at 1 μM), the “%-inhibition of LATS2” value was -8%.
For `CCCS(=O)(=O)Nc1ccc(F)c(C(=O)c2c[nH]c3ncc(-c4ccc(Cl)cc4)cc23)c1F` [vemurafenib] the same measures were 0.45%, 13% and -2.28%.
